Measured values reported in patent US20190365675A1, “COMPOSITIONS FOR THE PREVENTION AND/OR TREATMENT OF ALCOHOL USE DISORDERS” (SERVICIO ANDALUZ DE SALUD, priority 2016, published 2019).

Experiments:
Assay type in all cases: in vivo, Wistar rats
4-hydroxynonenal (4-HNE) = assay: Lipid peroxidation (HNE adduct ELISA) in frontal cortex after ethanol intoxication; details: significant only in animals treated with ethanol, OEA pre-treatment
Experimental: The animals were treated with intragastric (i.g.) ethanol 3 times a day using an i.g. cannula (16G needle, Fisher Scientific, Waltham, Mass., USA), following a protocol based on a slightly modified standard 4-day alcohol intoxication pattern (Bernier et al., 2002a, b) (FIG. 1A). The ethanol doses were administered every 8 h for a total time of 4 days. The rats treated with ethanol received an initial loading dose of 5 g/kg of ethanol in a 30% solution (w/v) and then a maximum maintenance dose of 3 g/kg, which were determined based on blood ethanol levels (BEL). This repeated standard alcohol intoxication paradigm kept BEL intoxication relatively constant in a range of sedation/ataxia (190 to 430 mg/dl, Table 3), according to the 6-point alcohol intoxication behavior scale (Majchrowicz, 1975). The mean dose of ethanol/rat/day (days 1-4) was 7.06 g/kg, similar to other studies (Obernier et al., 2002a, b). OEA (5 mg/kg, i.p., except initial dose of 10 mg/kg i.p.; synthesized as described in Giuffrida et al., 2000) was dissolved in the vehicle (5% Tween-80 in saline solution) and injected 10 minutes before each of the administrations of ethanol by an intragastric gavage. […] The levels of HNE protein adducts in cerebral cortex lysates were measured using an OxiSelect™ HNE adduct competitive ELISA 96-well kit (Cell Biolabs®, San Diego, Calif., USA).

TLR4 = TLR4 mRNA and protein expression in frontal cortex after ethanol intoxication; details: 2-4 h after last ethanol, OEA pre-treatment
Experimental: The animals were treated with intragastric (i.g.) ethanol 3 times a day using an i.g. cannula (16G needle, Fisher Scientific, Waltham, Mass., USA), following a protocol based on a slightly modified standard 4-day alcohol intoxication pattern (Bernier et al., 2002a, b) (FIG. 1A). The ethanol doses were administered every 8 h for a total time of 4 days. The rats treated with ethanol received an initial loading dose of 5 g/kg of ethanol in a 30% solution (w/v) and then a maximum maintenance dose of 3 g/kg, which were determined based on blood ethanol levels (BEL). This repeated standard alcohol intoxication paradigm kept BEL intoxication relatively constant in a range of sedation/ataxia (190 to 430 mg/dl, Table 3), according to the 6-point alcohol intoxication behavior scale (Majchrowicz, 1975). The mean dose of ethanol/rat/day (days 1-4) was 7.06 g/kg, similar to other studies (Obernier et al., 2002a, b). […] The autoradiograph was quantified by densitometry (NIH ImageJ® software, National Biosciences, Lincoln, Nebr. USA) and expressed as optical density (OD). […] The quantitative changes in mRNA levels were estimated by means of RT-PCR, carried out in the presence of the SYBR green primer using a 20-L reaction in a Rotor-Gene (Corbett Research®, Mortlake, NSW, Australia). […]

control animals = assay: OEA time curve in control animals; details: time curve 3 h, 6 h, 24 h; some trends at 3 h (TLR4, p65)
Experimental: A time curve (n=18) was also established with OEA (3 h, 6 h, and 24 h) to rule out any effect in the control animals.

CCCCCCCC/C=C\CCCCCCCC(=O)NCCO [OEA, oleoylethanolamide]
Formation of HNE (lipid peroxidation) (4-hydroxynonenal (4-HNE)): reduced
Ethanol-induced TLR4 protein expression (TLR4): reduce
Ethanol-induced overexpression of TLR-4 mRNA (TLR4): reduce
Effect of OEA on the parameters in control animals (control animals): did not significantly modify
